Measurements reported in patent US20260124201A1, “CYCLOPENTANE COMPOUND” (Kissei Pharmaceutical Co., Ltd., priority 2022, published 2026).

target: T1, human OX2R (Homo sapiens, UniProt O43614); test: Measurement of OX2R agonist activity (intracellular calcium concentration change, Fluo4-AM, FDSS 7000); assay type: cell-based; conditions: compound concentration 10 μM; human OX2R-expressing CHO-K1 cells; 1 μM human orexin A peptide = 100%, medium alone = 0%
T1 construct: expressed in transfected cells
T1 sequence (O43614 1-444): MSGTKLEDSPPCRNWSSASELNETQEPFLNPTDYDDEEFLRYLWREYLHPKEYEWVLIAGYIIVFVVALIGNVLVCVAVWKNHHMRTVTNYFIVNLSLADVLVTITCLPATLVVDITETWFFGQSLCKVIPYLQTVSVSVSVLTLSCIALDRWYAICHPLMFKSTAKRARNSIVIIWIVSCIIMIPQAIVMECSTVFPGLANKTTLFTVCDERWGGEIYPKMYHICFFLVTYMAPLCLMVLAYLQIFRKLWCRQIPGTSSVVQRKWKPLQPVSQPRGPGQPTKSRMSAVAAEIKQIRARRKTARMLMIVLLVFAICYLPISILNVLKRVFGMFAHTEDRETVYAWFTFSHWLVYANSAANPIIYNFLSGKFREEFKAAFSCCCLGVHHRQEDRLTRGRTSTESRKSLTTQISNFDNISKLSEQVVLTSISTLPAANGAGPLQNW
Source text: The following abbreviations in the description, the figures and the tables have the following meanings, respectively. • AZADOL (registered trademark): 2-Hydroxy-2-azaadamantane • Boc2O: di-tert-butyl dicarbonate • DIPEA: N,N-diisopropylethylamine • DCM: dichloromethane • DMAP: 4-dimethylaminopyridine • DMF: N,N-dimethylformamide • DMSO: dimethylsulfoxide • Deoxo-Fluor: bis(2-methoxyethyl)-aminosulfur trifluoride • HATU: O-(7-azabenzotriazol-1-yl)-N,N,N′,N′-tetramethyluronium hexafluorophosphate • LDA: lithium diisopropylamide • MeCN: acetonitrile • Me4tBuXPhos: 2-di-tert-butylphosphino-3,4,5,6-tetramethyl-2′,4′,6′-triisopropyl-1,1′-biphenyl • MTBE: methyl tert-butyl ether • NMP: N-methylpyrrolidone • PdCl2(PPh3)2: dichlorobis(triphenylphosphine)palladium(II) • Pd(dba)2: bis(dibenzylideneacetone)palladium(0) • Pd2(dba)3: tris(dibenzylideneacetone)dipalladium(0) • Pd(dppf)Cl2: [1,1′-bis(diphenylphosphino)ferrocene]dichloropalladium(II) • Pd(PPh3)4: tetrakis(triphenylphosphine)palladium(0) • TEA: triethylamine • TFA: trifluoroacetic acid • THF: tetrahydrofuran • Xphos: 2-dicyclohexylphosphino-2′,4′,6′-triisopropylbiphenyl • Xphos Pd G3: (2-dicyclohexylphosphino-2′,4′,6′-triisopropyl-1,1′-biphenyl)[2-(2′-amino-1,1′-biphenyl)]palladium(II) methanesulfonic acid salt • 10% Pd/C: Palladium 10% on Carbon (wetted with ca. 55% water) • APS: aminopropylated silica gel • ODS: octadecyl-silylated silica gel • Method A: column chromatography with an aminopropylated silica gel column followed by a silica gel column • Chiral preparative column chromatography: chiral preparative column chromatography using YMC CHIRALART Cellulose-SB • Ref. No.: Reference Example Number • Str.: structural formula • Ex. No.: Example Number • Phys. data: physical data • ^1H-NMR: hydrogen nuclear magnetic resonance spectrum • CDCl3: chloroform-d1 • MS: mass spectrometry (The measured values in the tables were measured by electrospray ionization or multiionization using electrospray ionization-atmospheric pressure chemical ionization.) • Act.: activation rate of test substance at a compound concentration of 10 μM calculated by setting the fluorescence intensity obtained when human orexin A peptide was added at a concentration of 1 μM as 100% and the fluorescence intensity obtained when the medium alone was added as 0% • CHO: Chinese hamster ovary • HEPES: 2-[4-(2-hydroxyethyl)-1-piperazinyl]ethanesulfonic acid
A human OX2R sequence (Accession No. NM_001526.4) was inserted into the multiple cloning site of pcDNA3.4 (Life Technologies Japan Ltd.) to clone a plasmid vector for human OX2R expression. The plasmid was introduced into CHO-K1 cells using Lipofectamine 2000 (Life Technologies Japan Ltd.). Two days later, the transgenic CHO-K1 cells were passaged into 175T flasks and cultured selectively for 6 days. As a selection medium, Ham's F-12 Nutrient Mix (Life Technologies Japan Ltd.), containing Geneticin (registered trademark) (Life Technologies Japan Ltd.) at a final concentration of 1 mg/mL and inactivated fetal bovine serum (Biowest) at a final concentration of 10%, was used. After the selective culture, the cells were reseeded into 96-well plates, and a human OX2R-expressing cell line was obtained by limiting dilution.
The agonist effects of test substances on human OX2R were evaluated using the intracellular calcium concentration-change upon stimulation as an indicator. A day before measurement of the intracellular calcium concentrations, human OX2R-expressing cells suspended in a medium were seeded into 384-well plates at 5×10^3 cells/50 μL/well and cultured overnight in an incubator set at 37° C. and 5% CO2. After incubation, the medium was removed and replaced with 20 μL of a loading buffer. […]

First: CON(C)C(=O)[C@@]1(Cc2cccc(-c3ccccc3C#N)c2)CC[C@H](NS(C)(=O)=O)C1 (relative stereo) [Example 10, (1R*,3S*)-1-((2′-Cyano-[1,1′-biphenyl]-3-yl)methyl)-N-methoxy-N-methyl-3-(methylsulfonamido)cyclopentane-1-carboxamide]
Second: CON(C)C(=O)[C@@]1(Cc2cccc(-c3ccccc3O)c2)CC[C@H](NS(C)(=O)=O)C1 (relative stereo) [Example 11]
The “Act. (%): activation rate of test substance” value (“Act. (%): activation rate” for short) of the first is lower: 41% for the first, 71% for the second.

First: CONC(=O)[C@@]1(Cc2cccc(-c3ncccn3)c2)CC[C@H](NS(C)(=O)=O)C1 (relative stereo) [Example 29, (1R*,3S*)—N-Methoxy-3-(methylsulfonamido)-1-(3-(pyrimidin-2-yl)benzyl)cyclopentane-1-carboxamide]
Second: CON(C)C(=O)[C@@]1(Cc2cc(-c3ncccn3)ccc2F)CC[C@H](NS(C)(=O)=O)C1 (relative stereo) [Example 26]
The “Act. (%): activation rate” value of the first is lower: 47% for the first, 99% for the second.

Compared with `C[C@H]1CCCN1C(=O)[C@@]1(Cc2cccc(-c3ccccc3)c2)CC[C@H](NS(C)(=O)=O)C1` (relative stereo) [Example 8], `CO[C@H]1CCN(C(=O)[C@@]2(Cc3cccc(-c4ccccc4)c3)CC[C@H](NS(C)(=O)=O)C2)C1` (relative stereo) [Example 70] is lower in “Act. (%): activation rate” value: 75% for the first, 27% for the second.

First: CCS(=O)(=O)N[C@@H]1C[C@@](Cc2cccc(-c3ncc(F)cn3)c2)(C(=O)N(C)OC)C[C@@H]1F [Example 59, (1R,3R,4S)-3-(Ethylsulfonamido)-4-fluoro-1-(3-(5-fluoropyrimidin-2-yl)benzyl)-N-methoxy-N-methylcyclopentane-1-carboxamide]
Second: CCS(=O)(=O)N[C@@H]1C[C@@](Cc2ccc(Cl)c(-c3ncc(F)cn3)c2)(C(=O)N(C)OC)C[C@@H]1F [Example 63, (1R,3R,4S)-1-(4-Chloro-3-(5-fluoropyrimidin-2-yl)benzyl)-3-(ethylsulfonamido)-4-fluoro-N-methoxy-N-methylcyclopentane-1-carboxamide]
The “Act. (%): activation rate” value of the first is higher: 98% for the first, 96% for the second.

Compared with `CON(C)C(=O)[C@@]1(Cc2ccc(O)c(-c3ncc(F)cn3)c2)C[C@H](F)[C@H](NS(C)(=O)=O)C1` (relative stereo) [Example 39, (1R*,3S*,4R*)-3-Fluoro-1-(3-(5-fluoropyrimidin-2-yl)-4-hydroxybenzyl)-N-methoxy-N-methyl-4-(methylsulfonamido)cyclopentane-1-carboxamide], `CON(C)C(=O)[C@@]1(Cc2ccc(F)c(-c3ncc(F)cn3)c2)C[C@H](F)[C@H](NS(=O)(=O)N(C)C)C1` (relative stereo) [Example 34, (1R*,3R*,4S*)-3-((N,N-Dimethylsulfamoyl)amino)-4-fluoro-1-(4-fluoro-3-(5-fluoropyrimidin-2-yl)benzyl)-N-methoxy-N-methylcyclopentane-1-carboxamide] is lower in “Act. (%): activation rate” value: 91% for the first, 90% for the second.

Compared with `CON(C)C(=O)[C@@]1(Cc2ccc(C(F)(F)F)c(-c3ncc(F)cn3)c2)CC[C@H](NS(C)(=O)=O)C1` (relative stereo) [Example 25], `CON(C)C(=O)[C@@]1(Cc2ccc(C)c(-c3ncc(F)cn3)c2)CC[C@H](NS(C)(=O)=O)C1` (relative stereo) [Example 22] is higher in “Act. (%): activation rate” value: 63% for the first, 87% for the second.

Going from `CON(C)C(=O)[C@@]1(Cc2cccc(-c3nc(C)co3)c2)CC[C@H](NS(C)(=O)=O)C1` (relative stereo) [Example 13] to `CON(C)C(=O)[C@@]1(Cc2cccc(-c3ncc(C)cn3)c2)CC[C@H](NS(C)(=O)=O)C1` (relative stereo) [Example 18], the “Act. (%): activation rate” value falls from 90% to 87%.

First: CON(C)C(=O)[C@]1(Cc2cccc(-c3ncc(F)cn3)c2)C[C@@H](NS(C)(=O)=O)C(F)(F)C1 [Example 66, (1R,4R)-3,3-Difluoro-1-(3-(5-fluoropyrimidin-2-yl)benzyl)-N-methoxy-N-methyl-4-(methylsulfonamido)cyclopentane-1-carboxamide]
Second: CON(C)C(=O)[C@@]1(Cc2cccc(-c3ncc(F)cn3)c2)C[C@H](C)[C@H](NS(C)(=O)=O)C1 (relative stereo) [Example 45, (1R*,3S*,4R*)-1-(3-(5-Fluoropyrimidin-2-yl)benzyl)-N-methoxy-N,3-dimethyl-4-(methylsulfonamido)cyclopentane-1-carboxamide]
The “Act. (%): activation rate” value of the first is higher: 95% for the first, 93% for the second.

Compared with `CON(C)C(=O)[C@@]1(Cc2cccc(-c3ncc(Cl)cn3)c2)CC[C@H](NS(C)(=O)=O)C1` (relative stereo) [Example 15, (1R*,3S*)-1-(3-(5-Chloropyrimidin-2-yl)benzyl)-N-methoxy-N-methyl-3-(methylsulfonamido)cyclopentane-1-carboxamide], `CON(C)C(=O)[C@@]1(Cc2cccc(-c3ncc(N(C)C)cn3)c2)CC[C@H](NS(C)(=O)=O)C1` (relative stereo) [Example 21, (1R*,3S*)-1-(3-(5-(Dimethylamino)pyrimidin-2-yl)benzyl)-N-methoxy-N-methyl-3-(methylsulfonamido)cyclopentane-1-carboxamide] is lower in “Act. (%): activation rate” value: 86% for the first, 48% for the second.

Compared with `CON(C)C(=O)[C@@]1(Cc2ccc(F)c(-c3ccccc3F)c2)CC[C@H](NS(C)(=O)=O)C1` (relative stereo) [Example 3, (1R*,3S*)-1-((2′,6-Difluoro-[1,1′-biphenyl]-3-yl)methyl)-N-methoxy-N-methyl-3-(methylsulfonamido)cyclopentane-1-carboxamide], `CON(C)C(=O)[C@@]1(Cc2ccc(F)c(-c3ncc(C)cn3)c2)CC[C@H](NS(C)(=O)=O)C1` (relative stereo) [Example 24] is lower in “Act. (%): activation rate” value: 93% for the first, 83% for the second.

Compared with `CO[C@@H]1C[C@](Cc2cccc(-c3ncc(F)cn3)c2)(C(=O)N(C)OC)C[C@H]1NS(C)(=O)=O` [Example 68], `CON(C)C(=O)[C@@]1(Cc2cccc(-c3ncc(C(F)(F)F)cn3)c2)CC[C@H](NS(C)(=O)=O)C1` (relative stereo) [Example 19] is lower in “Act. (%): activation rate” value: 91% for the first, 45% for the second.

Going from `COCCNC(=O)[C@@]1(Cc2cccc(-c3ccccc3)c2)CC[C@H](NS(C)(=O)=O)C1` (relative stereo) [Example 69] to `CON(C)C(=O)[C@@]1(Cc2cccc(-c3cscn3)c2)CC[C@H](NS(C)(=O)=O)C1` (relative stereo) [Example 16], the “Act. (%): activation rate” value rises from 44% to 91%.

In the case of `CON(C)C(=O)[C@@]1(Cc2cccc(-n3nccn3)c2)CC[C@H](NS(C)(=O)=O)C1` (relative stereo) [Example 27, (1R*,3S*)-1-(3-(2H-1,2,3-Triazol-2-yl)benzyl)-N-methoxy-N-methyl-3-(methylsulfonamido)cyclopentane-1-carboxamide], the “Act. (%): activation rate” value is reported as 87%.
